Measurements from paper PMC10174618, “Monoterpenoid aryl hydrocarbon receptor allosteric antagonists protect against ultraviolet skin damage in female mice” (Nature Communications, 2023).

Tests used:
Assay in all cases: biochemical
Design in all cases: KINOMEscan scanMAX active site-directed competition binding assay, percent of control, 468 kinases
Details in all cases: competition binding, percent of control
PRKG1 = PRKG1 (Homo sapiens, UniProt Q13976)
Method: (§1) The KINOMEscan^TM screening platform (scanMAX assay) employs a proprietary active site-directed competition binding assay that quantitatively measures the interactions between test compounds (here 100 μM S-carvone) and 468 human protein kinases. The assay was performed at Eurofins DiscoverX Corp. (Fremont, CA, USA). Blocking protein kinase C (PKC) activity was reported to inhibit the transcription of CYP1A1 but to exert no effect on the nuclear translocation of AhR[26], which was also the case here with carvones. Therefore, we tested whether carvones inhibit PKC catalytic activity. […] We also evaluated the interaction between 100 μM S-carvone and 468 human protein kinases, employing KINOMEscan^TM (scanMAX assay), a proprietary active site-directed competition binding assay. The minimal inhibitory threshold used by the screening platform KINOMEscan^TM is 35% of the control kinase activity. Among 468 kinases tested, 467 were above the 35% cutoff. Tyrosine kinase 2 TK2 (JH2 domain pseudokinase) activity was inhibited to 27% of the control activity, but this kinase is not relevant to the regulation of transcription activity (Fig. 5B; Figure S9). Overall, we excluded the possibility that the effects of carvones on AhR signaling are caused indirectly by the inhibition of the human kinome, particularly PKC.

QSK = target: T1, QSK (Homo sapiens, UniProt Q9Y2K2)
T1 construct: gene SIK3
Method: as §1

PIM2 = PIM2 (Homo sapiens, UniProt Q9P1W9)
Method: as §1

[1] = target: T2, RPS6KA4(Kin.Dom.1-N-terminal) (Homo sapiens, UniProt O75676)
T2 construct: Kin.Dom.1-N-terminal
Method: as §1

[2] = target: T3, ABL1(Q252H)-nonphosphorylated (Homo sapiens, UniProt P00519, Q252H)
T3 construct: nonphosphorylated
Method: as §1

EGFR(L858R,T790M) = EGFR(L858R,T790M) (Homo sapiens, UniProt P00533, L858R/T790M)
Method: as §1

PIM3 = PIM3 (Homo sapiens, UniProt Q86V86)
Method: as §1

MAP4K3 = MAP4K3 (Homo sapiens, UniProt Q8IVH8)
Method: as §1

RET(V804L) = RET(V804L) (Homo sapiens, UniProt P07949, V804L)
Method: as §1

PAK7 = target: T4, PAK7 (Homo sapiens, UniProt Q9P286)
T4 construct: gene PAK5
Method: as §1

FES = FES (Homo sapiens, UniProt P07332)
Method: as §1

TLK1 = TLK1 (Homo sapiens, UniProt Q9UKI8)
Method: as §1

MKK7 = target: T5, MKK7 (Homo sapiens, UniProt O14733)
T5 construct: gene MAP2K7
Method: as §1

[3] = target: T6, JAK1(JH2domain-pseudokinase) (Homo sapiens, UniProt P23458)
T6 construct: JH2domain-pseudokinase
Method: as §1

CASK = CASK (Homo sapiens, UniProt O14936)
Method: as §1

KIT(D816V) = KIT(D816V) (Homo sapiens, UniProt P10721, D816V)
Method: as §1

MET = MET (Homo sapiens, UniProt P08581)
Method: as §1

CSNK1D = CSNK1D (Homo sapiens, UniProt P48730)
Method: as §1

MKNK2 = MKNK2 (Homo sapiens, UniProt Q9HBH9)
Method: as §1

CDK9 = CDK9 (Homo sapiens, UniProt P50750)
Method: as §1

FLT3(R834Q) = FLT3(R834Q) (Homo sapiens, UniProt P36888, R834Q)
Method: as §1

T1 sequence (Q9Y2K2 whole entry): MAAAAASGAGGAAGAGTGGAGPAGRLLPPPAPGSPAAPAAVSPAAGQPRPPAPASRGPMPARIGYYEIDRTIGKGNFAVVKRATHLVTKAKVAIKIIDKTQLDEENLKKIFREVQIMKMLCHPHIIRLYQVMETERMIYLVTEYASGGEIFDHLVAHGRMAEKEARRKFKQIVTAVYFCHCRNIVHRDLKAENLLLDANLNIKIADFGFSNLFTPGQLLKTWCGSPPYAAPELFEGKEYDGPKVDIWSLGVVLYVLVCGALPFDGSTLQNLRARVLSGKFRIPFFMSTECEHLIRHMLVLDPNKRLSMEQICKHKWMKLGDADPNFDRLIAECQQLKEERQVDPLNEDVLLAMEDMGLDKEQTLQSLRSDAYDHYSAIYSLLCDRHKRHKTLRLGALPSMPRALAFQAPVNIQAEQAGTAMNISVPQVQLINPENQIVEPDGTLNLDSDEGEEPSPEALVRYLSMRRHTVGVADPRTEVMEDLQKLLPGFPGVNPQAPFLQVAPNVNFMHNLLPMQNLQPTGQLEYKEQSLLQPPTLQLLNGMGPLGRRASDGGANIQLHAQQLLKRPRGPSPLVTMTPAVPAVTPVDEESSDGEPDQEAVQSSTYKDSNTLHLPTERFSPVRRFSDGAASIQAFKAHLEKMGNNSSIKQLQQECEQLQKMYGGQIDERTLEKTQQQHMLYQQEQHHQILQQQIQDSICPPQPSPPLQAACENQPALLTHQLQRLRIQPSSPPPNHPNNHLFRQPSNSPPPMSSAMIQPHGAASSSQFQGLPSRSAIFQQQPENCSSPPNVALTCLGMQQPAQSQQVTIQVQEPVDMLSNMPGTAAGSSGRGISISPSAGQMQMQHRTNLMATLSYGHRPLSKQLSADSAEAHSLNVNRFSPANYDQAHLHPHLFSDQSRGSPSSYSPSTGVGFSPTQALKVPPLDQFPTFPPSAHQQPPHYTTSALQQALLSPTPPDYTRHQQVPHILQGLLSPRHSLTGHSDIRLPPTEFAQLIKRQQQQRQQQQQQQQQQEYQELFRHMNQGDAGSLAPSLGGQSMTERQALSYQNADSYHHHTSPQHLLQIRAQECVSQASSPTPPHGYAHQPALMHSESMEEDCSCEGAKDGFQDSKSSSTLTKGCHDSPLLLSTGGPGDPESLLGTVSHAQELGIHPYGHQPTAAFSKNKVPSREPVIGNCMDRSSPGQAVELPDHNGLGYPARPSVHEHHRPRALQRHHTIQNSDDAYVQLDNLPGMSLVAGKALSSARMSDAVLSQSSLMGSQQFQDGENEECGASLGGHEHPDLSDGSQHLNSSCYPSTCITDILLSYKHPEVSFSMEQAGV
Sequence of MAP4K3 (Q8IVH8 whole entry): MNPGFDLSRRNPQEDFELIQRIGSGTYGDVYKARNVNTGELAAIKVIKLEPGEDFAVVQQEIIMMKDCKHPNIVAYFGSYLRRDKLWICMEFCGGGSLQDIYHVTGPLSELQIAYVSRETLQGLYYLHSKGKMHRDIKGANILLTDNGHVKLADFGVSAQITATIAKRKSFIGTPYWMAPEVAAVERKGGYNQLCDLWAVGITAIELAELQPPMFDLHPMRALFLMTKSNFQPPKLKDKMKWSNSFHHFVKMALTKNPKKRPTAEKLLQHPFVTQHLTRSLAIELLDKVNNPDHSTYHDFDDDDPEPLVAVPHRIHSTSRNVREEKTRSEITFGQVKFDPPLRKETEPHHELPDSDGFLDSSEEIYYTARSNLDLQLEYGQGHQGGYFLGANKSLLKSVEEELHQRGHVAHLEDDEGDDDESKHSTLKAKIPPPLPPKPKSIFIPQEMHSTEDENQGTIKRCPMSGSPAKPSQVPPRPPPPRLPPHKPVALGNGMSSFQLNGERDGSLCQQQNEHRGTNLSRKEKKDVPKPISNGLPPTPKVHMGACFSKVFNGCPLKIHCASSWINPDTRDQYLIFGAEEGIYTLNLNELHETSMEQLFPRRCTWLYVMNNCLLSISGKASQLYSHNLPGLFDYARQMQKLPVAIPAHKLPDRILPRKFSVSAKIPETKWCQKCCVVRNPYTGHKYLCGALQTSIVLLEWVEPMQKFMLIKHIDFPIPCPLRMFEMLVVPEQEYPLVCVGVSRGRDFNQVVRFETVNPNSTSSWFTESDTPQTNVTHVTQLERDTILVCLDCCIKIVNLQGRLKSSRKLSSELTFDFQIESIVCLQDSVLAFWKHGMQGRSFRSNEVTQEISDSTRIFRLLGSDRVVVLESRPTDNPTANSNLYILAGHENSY
Sequence of PIM2 (Q9P1W9 whole entry): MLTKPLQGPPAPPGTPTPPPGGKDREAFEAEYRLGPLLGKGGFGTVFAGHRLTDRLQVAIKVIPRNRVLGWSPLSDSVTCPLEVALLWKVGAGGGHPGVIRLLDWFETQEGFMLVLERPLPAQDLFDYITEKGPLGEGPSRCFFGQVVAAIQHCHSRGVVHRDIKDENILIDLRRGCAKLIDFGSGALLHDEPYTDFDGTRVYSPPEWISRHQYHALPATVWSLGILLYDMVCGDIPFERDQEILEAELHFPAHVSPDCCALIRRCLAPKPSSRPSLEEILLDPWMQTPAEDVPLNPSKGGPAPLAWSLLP
T2 sequence (O75676 whole entry): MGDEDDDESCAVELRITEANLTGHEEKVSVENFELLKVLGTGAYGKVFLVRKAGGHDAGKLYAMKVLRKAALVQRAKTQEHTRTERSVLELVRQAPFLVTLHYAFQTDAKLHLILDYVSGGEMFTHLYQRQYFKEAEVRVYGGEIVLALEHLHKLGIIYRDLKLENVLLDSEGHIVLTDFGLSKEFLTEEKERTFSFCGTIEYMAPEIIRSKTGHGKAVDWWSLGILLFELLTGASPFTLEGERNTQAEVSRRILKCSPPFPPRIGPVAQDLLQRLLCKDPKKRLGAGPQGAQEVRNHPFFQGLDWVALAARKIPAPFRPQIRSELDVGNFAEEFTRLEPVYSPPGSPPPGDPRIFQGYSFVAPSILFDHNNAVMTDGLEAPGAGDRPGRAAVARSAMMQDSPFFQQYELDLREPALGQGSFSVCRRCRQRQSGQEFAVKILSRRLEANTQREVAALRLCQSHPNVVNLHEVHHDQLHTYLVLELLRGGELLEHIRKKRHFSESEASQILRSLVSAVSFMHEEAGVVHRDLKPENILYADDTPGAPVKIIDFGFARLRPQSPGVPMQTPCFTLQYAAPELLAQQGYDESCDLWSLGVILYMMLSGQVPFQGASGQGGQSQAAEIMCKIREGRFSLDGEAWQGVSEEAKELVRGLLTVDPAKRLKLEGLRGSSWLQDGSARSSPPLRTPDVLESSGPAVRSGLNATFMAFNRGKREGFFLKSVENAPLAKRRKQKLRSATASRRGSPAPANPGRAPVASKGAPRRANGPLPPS
T4 sequence (Q9P286 whole entry): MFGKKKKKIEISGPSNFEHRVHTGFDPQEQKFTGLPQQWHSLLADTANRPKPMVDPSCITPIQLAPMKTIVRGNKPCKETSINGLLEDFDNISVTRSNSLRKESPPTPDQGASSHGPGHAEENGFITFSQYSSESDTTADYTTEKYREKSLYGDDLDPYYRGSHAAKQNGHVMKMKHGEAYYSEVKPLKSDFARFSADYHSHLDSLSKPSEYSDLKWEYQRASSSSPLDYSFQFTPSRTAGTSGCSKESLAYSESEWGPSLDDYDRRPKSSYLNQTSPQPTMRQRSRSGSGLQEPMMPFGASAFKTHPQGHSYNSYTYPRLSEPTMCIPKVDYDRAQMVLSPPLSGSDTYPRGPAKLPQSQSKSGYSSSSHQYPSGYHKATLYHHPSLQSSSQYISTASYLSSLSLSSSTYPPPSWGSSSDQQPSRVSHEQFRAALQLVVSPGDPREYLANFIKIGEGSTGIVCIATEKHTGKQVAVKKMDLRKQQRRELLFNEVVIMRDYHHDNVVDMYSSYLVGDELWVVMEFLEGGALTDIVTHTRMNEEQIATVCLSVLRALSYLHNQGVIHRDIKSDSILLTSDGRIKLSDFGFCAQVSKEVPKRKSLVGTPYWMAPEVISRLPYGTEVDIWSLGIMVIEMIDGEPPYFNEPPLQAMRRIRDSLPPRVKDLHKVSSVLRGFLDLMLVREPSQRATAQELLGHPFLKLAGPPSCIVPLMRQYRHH
Sequence of CDK9 (P50750 whole entry): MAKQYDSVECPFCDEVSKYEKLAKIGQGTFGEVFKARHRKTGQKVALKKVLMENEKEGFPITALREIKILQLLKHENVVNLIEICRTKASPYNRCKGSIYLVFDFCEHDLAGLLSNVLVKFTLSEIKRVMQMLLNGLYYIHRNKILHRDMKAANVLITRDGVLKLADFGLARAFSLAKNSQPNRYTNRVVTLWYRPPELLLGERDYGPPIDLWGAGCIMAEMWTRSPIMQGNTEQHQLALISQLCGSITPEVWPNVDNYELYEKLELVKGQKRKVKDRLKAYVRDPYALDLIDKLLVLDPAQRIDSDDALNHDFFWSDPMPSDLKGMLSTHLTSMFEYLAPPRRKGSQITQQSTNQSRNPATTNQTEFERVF

remaining binding at 100 µM (PRKG1): 84%
remaining binding at 100 µM (QSK): 89%
remaining binding at 100 µM (PIM2): 86%
remaining binding at 100 µM [1]: 87%
remaining binding at 100 µM [2]: 66%
remaining binding at 100 µM (EGFR(L858R,T790M)): 60%
remaining binding at 100 µM (PIM3): 72%
remaining binding at 100 µM (MAP4K3): 90%
remaining binding at 100 µM (RET(V804L)): 87%
remaining binding at 100 µM (PAK7): 100%
remaining binding at 100 µM (FES): 69%
remaining binding at 100 µM (TLK1): 59%
remaining binding at 100 µM (MKK7): 67%
remaining binding at 100 µM [3]: 58%
remaining binding at 100 µM (CASK): 83%
remaining binding at 100 µM (KIT(D816V)): 78%
remaining binding at 100 µM (MET): 90%
remaining binding at 100 µM (CSNK1D): 68%
remaining binding at 100 µM (MKNK2): 82%
remaining binding at 100 µM (CDK9): 85%
remaining binding at 100 µM (FLT3(R834Q)): 83%
Structure (SMILES): C=C(C)[C@H]1CC=C(C)C(=O)C1 [S-carvone]
